Laboratory results as given in patent US10221153B2, “Dibenzothiophene compounds” (Saint Louis University, priority 2017, dated 2019).
Entries after “also recorded” stand apart in the source; their conditions may differ. Like-named read-outs stand apart in the source and are kept apart here.

Assays:
[1] = Emission and excitation scans on spectrofluorometer, approximately 1 mM in acetonitrile (Example 3); type: physicochemical
Procedure: General Procedure for Emission and Excitation Data Collection:
(§1) All data were collected on a SHIMAZDU Spectrofluorometer RF-5301PC. Solutions of the respective compounds were prepared in acetonitrile at approximately 1 mM concentration. Solutions (4 mL) were added to a freshly washed quartz cuvette for measurements. The excitation wavelength was varied between 270 nm and 390 nm in 20 nm intervals until the greatest intensity emission was detected. The emission spectra ranges started at 20 nm to the red of the chosen excitation wavelength up to 780 nm. Scan speed was set at “Very Fast” with both the slit widths set to 1.5 mm.
(§2) All data were collected on a SHIMAZDU Spectrofluorometer RF-5301PC. Solutions of the respective compounds were prepared in acetonitrile at approximately 1 mM concentration. Solutions (4 mL) were added to a freshly washed quartz cuvette for measurements. The monitored emission wavelength was set using the high intensity emission from the respective molecule. The scanning range was from 220 nm through 770 nm. Scan speed was set at “Very Fast” with both the slit widths set to 1.5 mm.

[2] = Quantum yield by single-point method; conditions: single-point method in EtOH
[3] = Photophysical analysis: absorption, excitation and emission at 10 μM (Example 5); type: physicochemical; conditions: EtOH at 10 μM
[4] = as above; type: physicochemical; conditions: for λabs / λem / Stokes Shift: acetonitrile at 10 μM; for λex (excitation wavelength): acetonitrile at 10 μM (footnotes a,b); for Stokes Shift: calculated from excitation wavelength; for λex: footnotes a,g: acetonitrile at 10 μM / EtOH at 10 μM
Procedure: as §1, §2
Excitation/emission data for compounds 6b, 7b, 8b, 15b, 16b, and 17b were collected using the methods described in Example 3 but using a lower concentration of acetonitrile (10 μM). Compounds 15b, 16b and 17b and their parent molecules (6b, 7b and 8b) all luminesce in the visible range and their optical properties are described in Table 4. […] The wavelength of λex for the excitation scan corresponds to excitation to S1, which leads to emission. This λex for all the molecules were red shifted, or shifted to the direction of longer wavelengths, from the peak absorption by an average 40 nm.

[5] = tested on: HeLa human cervical carcinoma cell line; experiment: Cell imaging of HeLa cells incubated with compound, fluorescence microscopy; type: cell-based; conditions: 1 μM; for tracking with chromosomes during mitosis / luminescence intensity in cells / location of luminescence in the cell: 120 min; for luminescence intensity in cells: excitation 350 nm, emission approximately 400 nm; for location of luminescence in the cell: merged bright field and UV images
Procedure: HeLa human cervical carcinoma cell line was obtained from ATCC (Manassas, Va.). The cells were cultured in a humidified incubator at 5% CO2 and 37° C. The cell line was grown in D-MEM (Invitrogen) high glucose supplemented with 10.0% fetal bovine serum (Invitrogen, Carlsbad, Calif.) and 1.0% Penicillin/Streptomycin (Invitrogen, Carlsbad, Calif.) for an environment suitable for cell growth. The culture was sub-cultured every three days to maintain normal cell growth.
Sterile glass PDL coated #1.5 cover slips (NeuVitro), pre-incubated with culture medium, were placed in sterile 6-well plates. Single cell suspension of the HeLa (cervical cancer cells taken from patient Henrietta Lacks) cell line was prepared at 5×10^4 cells ml^−1 in the appropriate medium. Volumes of 2.0 mL were pipetted into each of the wells containing the coverslips. The 6-well plate was left overnight at 37.0° C. in a 5.0% CO2 incubator. Following the overnight incubation, the plate was aspirated dry and then fresh culture medium, containing the drug (at 1.0 μM and 0.10% DMSO) in a volume of 2.0 mL, was gently pipetted onto the cell monolayers attached to the glass cover slips. Cells on the cover slips were exposed to the drug for approximately 2 hours. Cells were washed with PBS and treated with 4.0% paraformaldehyde solution prepared in PBS, incubated for 30 minutes at room temperature for […]. Several washes with PBS were completed to ensure excess solution was rinsed away. Glass cover slips were removed and mounted on slides with ProLong Gold Antifade Mountant (ThermoFisher Scientific). The specimen was dried for several minutes and sealed with clear nail polish before visualized under a microscope
Cell Image Captures: All images were captured with a Leica DM 4000 B microscope with a DFC3000G camera (Leica Microsystems, Germany) and 63× oil immersion lens. HeLa cells were staged according to the method above. Leica LASX Core Software (Leica Microsystems, Germany) was used to acquire the images.
Stained cells were clearly observed by exciting the cells with a broadly emitting lamp using DAPI filter set. Luminescence was observed within the cell bodies of the HeLa cells upon excitation of the UV wavelengths. The excitation wavelength was 350 nm and the emission wavelength was approximately 400 nm. FIG. 14 depicts representative images of HeLa cervical cancer cell lines incubated with Compounds 16b, 15b, and 17b (1 μM) for 120 min. Bright field images of cells incubated with compounds 16b, 15b, and 17b are shown in Panels A, D, and G, respectively. Luminescence from each compound (16b, 15b, and 17b) is shown in Panels B, E, and H, respectively, with UV laser radiation.

HeLa cells = experiment: Anti-proliferation (MTS) assay, HeLa cells, 72 hours; type: cell-based, human; conditions: 1 nM to 100 μM
Procedure: To determine whether long-term exposure to each compound could be toxic to cells, Hela cells were treated with varying concentrations of Compounds 16b, 15b and 17b for 72 hours. An anti-proliferation protocol was carried out by testing chosen compounds on the growth of the human cervical cancer cell lines. HeLa cells were cultured in their respective media supplemented with 10.0% FBS (fetal bovine serum) and 1.0% Pen/Strep. Cells (1,000 cells/100 μL per well) were plated in a 96-well culture plate (TC treated, Greiner) and incubated for 24 h. 50 μL (DMSO <1%) of the compound at final concentrations 100 μM, 10 μM, 1 μM, 100 nM, 10 nM, and 1 nM were added to the appropriate wells. Triplicates wells were performed for each compound, on three identical plates.
After incubation of the cells, at 37° C. in a humidified atmosphere of 5% CO2 for 72 hours, the cells were stained and incubated with MTS (3-(4,5-dimethylthiazol-2-yl)-5-(3-carboxymethoxyphenyl)-2-(4-sulfophenyl)-2H-tetrazolium) reagent in the presence of PMS (phenazine methosulfate) reagent for 2 hours to determine cell viability. An MTS assay is based on the reduction of the MTS tetrazolium compound by viable cells to generate a colored formazan dye that is soluble in cell culture media. The absorbance of each well was taken at 490 nm using a multimode plate reader (FlexStation 3, Molecular Devices, San Diego, Calif.). GraphPad Prism was used to analyze transposed data to determine the percent viability. […] Each compound was tested in at least triplicate.

[6] = cell footnote a: acetonitrile at 10 μM

Row | Structure (SMILES) | emission wavelength (emitted at) [1] | excitation wavelength (excited at) [1] | luminescence colour [1] | φ (quantum yield) [2] | log εmax (maximum molar extinction coefficient) [3] | λem [3] | log εex (molar extinction coefficient at excitation wavelength) [4] | λabs [4] | λem [4] | λex (excitation wavelength) [4] | Stokes Shift [4] | λex [4] | tracking with chromosomes during mitosis [5] | luminescence intensity in cells [5] | location of luminescence in the cell [5] | cytotoxicity / decrease in cell viability (HeLa cells) | log εex (molar extinction coefficient at excitation wavelength) [4, 6] | log εmax (maximum molar extinction coefficient) [4, 6] | effect on cell morphology ([5]; FIG. 14 panel G)
1 | O=S(=O)(Oc1ccccc1)c1ccc2c(c1)-c1cc(-c3ccccc3)ccc1S2(=O)=O [Compound 6b, phenyl 8-phenyldibenzo[b,d]thiophene-2-sulfonate 5,5-dioxide] | about 437 nm | 344 nm | luminesced in either a deep blue or near blue wavelength | 0.05 | 4.69 M^−1 cm^−1 | 434 nm | 4.45 M^−1 cm^−1 | 238 nm | 426 nm | 274 nm | 152 nm | 275 nm |  |  |  |  |  |  | 
2 | O=S(=O)(Oc1ccccc1)c1ccc2c(c1)c1cc(-c3cccc4ccccc34)ccc1[s+]2[O-] (stereo not shown) [Compound 7a, phenyl 8-(naphthalen-1-yl)dibenzo[b,d]thiophene-2-sulfonate 5-oxide] |  |  | luminesced in either a deep blue or near blue wavelength |  |  |  |  |  |  |  |  |  |  |  |  |  |  |  | 
3 | O=S(=O)(Oc1ccccc1)c1ccc2c(c1)-c1cc(-c3cccc4ccccc34)ccc1S2(=O)=O [Compound 7b, phenyl 8-(naphthalen-1-yl)dibenzo[b,d]thiophene-2-sulfonate 5,5-dioxide] | 499 nm | 367 nm | luminesced in either a deep blue or near blue wavelength | 0.15 | 4.79 M^−1 cm^−1 | 486 nm | 4.51 M^−1 cm^−1 | 243 nm | 492 nm | 274 nm | 218 nm | 274 nm |  |  |  |  |  |  | 
4 | O=S(=O)(Oc1ccccc1)c1ccc2c(c1)c1cc(-c3ccc(-c4ccccc4)cc3)ccc1[s+]2[O-] (stereo not shown) [Compound 8a, phenyl 8-([1,1′-biphenyl]-4-yl)dibenzo[b,d]thiophene-2-sulfonate 5-oxide] | 477 nm | 365 nm | luminesced in either a deep blue or near blue wavelength |  |  |  |  |  |  |  |  |  |  |  |  |  |  |  | 
5 | O=S(=O)(Oc1ccccc1)c1ccc2c(c1)-c1cc(-c3ccc(-c4ccccc4)cc3)ccc1S2(=O)=O [Compound 8b, phenyl 8-([1,1′-biphenyl]-4-yl)dibenzo[b,d]thiophene-2-sulfonate 5,5-dioxide] | 475 nm | 366 nm | luminesced in either a deep blue or near blue wavelength | 0.59 | 4.59 M^−1 cm^−1 | 478 nm | 4.17 M^−1 cm^−1 | 243 nm | 485 nm | 283 nm | 202 nm | 286 nm |  |  |  |  |  |  | 
6 | O=S(=O)([O-])c1ccc2c(c1)-c1cc(-c3ccccc3)ccc1S2(=O)=O.[Na+] [Compound 15b, sodium 8-phenyldibenzo[b,d]thiophene-2-sulfonate 5,5-dioxide] |  |  |  | 0.07 | 4.67 M^−1 cm^−1 | 380 nm | 4.4 M^−1 cm^−1 | 248 nm | 371 nm | 268 nm | 103 nm | 274 nm | track with chromosomes during mitosis | intense luminescence | luminescence is clearly identified within the nucleus of the cell | do not show any decrease in cell viability at any concentration tested; also recorded: low cytotoxicity |  |  | 
7 | O=S(=O)([O-])c1ccc2c(c1)-c1cc(-c3ccc(-c4ccccc4)cc3)ccc1S2(=O)=O.[Na+] [Compound 16b, sodium 8-([1,1′-biphenyl]-4-yl)dibenzo[b,d]thiophene-2-sulfonate 5,5-dioxide] |  |  |  | 0.29 |  | 422 nm |  | 246 nm | 412 nm | 287 nm | 125 nm | 284 nm | track with chromosomes during mitosis | intense luminescence | luminescence is clearly identified within the nucleus of the cell | begins to show some degree of toxicity at 100 μM; also recorded: low cytotoxicity | 2.48^a M^−1 cm^−1 | 4.75^a M^−1 cm^−1 | 
8 | O=S(=O)([O-])c1ccc2c(c1)-c1cc(-c3cccc4ccccc34)ccc1S2(=O)=O.[Na+] [Compound 17b, sodium 8-(naphthalen-1-yl)dibenzo[b,d]thiophene-2-sulfonate 5,5-dioxide] |  |  |  | 0.55 | 4.67 M^−1 cm^−1 | 428 nm | 4.36 M^−1 cm^−1 | 250 nm | 421 nm | 274 nm | 147 nm | 274 nm |  | slight luminescence | luminescence is clearly identified within the nucleus of the cell | do not show any decrease in cell viability at any concentration tested; also recorded: no observed cytotoxicity |  |  | seemed to influence the morphology of HeLa cells
